Nine molecules from patent US10526316B2, “Quinoxaline and pyridopyrazine derivatives as PI3Kβ inhibitors” (Janssen Pharmaceutica NV, priority 2015, dated 2020) can be followed below.

Like-named read-outs stand apart in the source and are kept apart here.

The test system of experiment [1] is Akt phosphorylated at Ser473 in PC-3 cells. Briefly: Cellular assay: phosphorylation of Akt at Ser473 in PC-3 cells (MSD ELISA). The format is cell-based. As to conditions: PC-3 cells, 60 min compound incubation, MSD ELISA, read-out: IC50 pAkt_S473. An outline of the steps: (§1)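 PC-3 cells were exposed to compound or 0.3% DMSO for 60 min at 37° C, 5% CO2, then lysed in ice-cold buffer. Phospho-Akt was captured on site-specific antibody-coated plates and detected with Sulfo-tag anti-total Akt by electrochemiluminescence. IC50 values came from five-concentration response curves.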
A general note: An ELISA detects its analyte on a solid surface through an enzyme-linked reagent.

In experiment [2] the target is T1, PI3Kδ (Homo sapiens, UniProt O00329).
T1 construct: purchased DiscoveRx Corporation, San Diego (contract service, KINOMEscan)
T1 sequence (O00329 1-1044): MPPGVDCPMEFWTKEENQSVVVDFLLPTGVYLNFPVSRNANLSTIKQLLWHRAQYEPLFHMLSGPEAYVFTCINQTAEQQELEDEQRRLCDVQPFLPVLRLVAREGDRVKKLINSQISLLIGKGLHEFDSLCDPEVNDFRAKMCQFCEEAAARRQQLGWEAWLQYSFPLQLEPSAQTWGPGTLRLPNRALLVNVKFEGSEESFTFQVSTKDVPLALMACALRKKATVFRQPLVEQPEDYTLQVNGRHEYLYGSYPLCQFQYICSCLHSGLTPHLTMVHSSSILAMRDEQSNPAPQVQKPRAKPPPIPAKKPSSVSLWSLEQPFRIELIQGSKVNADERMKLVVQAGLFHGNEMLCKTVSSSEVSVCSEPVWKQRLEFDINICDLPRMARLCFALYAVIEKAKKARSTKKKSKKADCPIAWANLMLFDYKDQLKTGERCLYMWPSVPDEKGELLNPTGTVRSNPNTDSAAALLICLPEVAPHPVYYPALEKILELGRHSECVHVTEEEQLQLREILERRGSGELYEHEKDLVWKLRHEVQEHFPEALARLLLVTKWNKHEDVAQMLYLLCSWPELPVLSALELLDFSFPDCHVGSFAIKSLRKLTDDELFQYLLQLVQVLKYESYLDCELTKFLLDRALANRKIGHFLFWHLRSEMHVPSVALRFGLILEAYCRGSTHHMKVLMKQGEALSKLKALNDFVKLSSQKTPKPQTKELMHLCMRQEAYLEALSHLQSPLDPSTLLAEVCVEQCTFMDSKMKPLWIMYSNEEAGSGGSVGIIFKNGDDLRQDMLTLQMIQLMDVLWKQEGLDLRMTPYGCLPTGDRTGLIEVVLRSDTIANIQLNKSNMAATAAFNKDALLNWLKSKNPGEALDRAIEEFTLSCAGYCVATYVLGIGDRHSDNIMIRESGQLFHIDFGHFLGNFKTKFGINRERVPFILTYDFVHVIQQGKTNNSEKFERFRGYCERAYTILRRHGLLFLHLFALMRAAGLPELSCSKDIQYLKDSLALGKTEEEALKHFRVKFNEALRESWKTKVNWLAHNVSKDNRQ
Briefly: Enzyme binding assay (KINOMEscan, DiscoveRx). As to conditions: PIK3Cδ_h. The procedure, abridged: (§2)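 Kinase binding measured via KINOMEscan, reported as affinity.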

The test system of experiment [3] is Akt phosphorylated at Thr308 in PC-3 cells. The experiment can be described thus: Cellular assay: phosphorylation of Akt at Thr308 in PC-3 cells (MSD ELISA). Type of experiment: cell-based. As to conditions: PC-3 cells, 60 min compound incubation, MSD ELISA, read-out: IC50 pAkt_Thr308. The procedure, abridged: as §1
Experiment [4] addresses T2, PI3Kβ (Homo sapiens, UniProt P42338).
T2 construct: purchased DiscoveRx Corporation, San Diego (contract service, KINOMEscan)
The experiment can be described thus: Enzyme binding assay (KINOMEscan, DiscoveRx). As to conditions: PIK3Cβ_h, read-out: Kd PIK3Cβ_h. An outline of the steps: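 Reported Kd (nM) reflects inhibitor binding to the kinase, as measured by KINOMEscan technology.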

The target of experiment [5] is T3, kinase enzymes (Homo sapiens, UniProt P42336).
T3 construct: purchased DiscoveRx Corporation, San Diego (contract service, KINOMEscan)
Briefly: Enzyme binding assay (KINOMEscan, DiscoveRx), further kinases of Table A. As to conditions: PIK3Cα_h. The procedure, abridged: as §2

In experiment [6] the target is T4, kinase enzymes (Homo sapiens, UniProt P42345).
T4 construct: purchased DiscoveRx Corporation, San Diego (contract service, KINOMEscan)
The description is as above. As to conditions: MTOR_h. The procedure, abridged: as §2

The target of experiment [7] is T5, kinase enzymes (Homo sapiens, UniProt P48736).
T5 construct: purchased DiscoveRx Corporation, San Diego (contract service, KINOMEscan)
The experiment is described as above. As to conditions: PIK3Cγ_h. An outline of the steps: as §2

T2 sequence (P42338 whole entry): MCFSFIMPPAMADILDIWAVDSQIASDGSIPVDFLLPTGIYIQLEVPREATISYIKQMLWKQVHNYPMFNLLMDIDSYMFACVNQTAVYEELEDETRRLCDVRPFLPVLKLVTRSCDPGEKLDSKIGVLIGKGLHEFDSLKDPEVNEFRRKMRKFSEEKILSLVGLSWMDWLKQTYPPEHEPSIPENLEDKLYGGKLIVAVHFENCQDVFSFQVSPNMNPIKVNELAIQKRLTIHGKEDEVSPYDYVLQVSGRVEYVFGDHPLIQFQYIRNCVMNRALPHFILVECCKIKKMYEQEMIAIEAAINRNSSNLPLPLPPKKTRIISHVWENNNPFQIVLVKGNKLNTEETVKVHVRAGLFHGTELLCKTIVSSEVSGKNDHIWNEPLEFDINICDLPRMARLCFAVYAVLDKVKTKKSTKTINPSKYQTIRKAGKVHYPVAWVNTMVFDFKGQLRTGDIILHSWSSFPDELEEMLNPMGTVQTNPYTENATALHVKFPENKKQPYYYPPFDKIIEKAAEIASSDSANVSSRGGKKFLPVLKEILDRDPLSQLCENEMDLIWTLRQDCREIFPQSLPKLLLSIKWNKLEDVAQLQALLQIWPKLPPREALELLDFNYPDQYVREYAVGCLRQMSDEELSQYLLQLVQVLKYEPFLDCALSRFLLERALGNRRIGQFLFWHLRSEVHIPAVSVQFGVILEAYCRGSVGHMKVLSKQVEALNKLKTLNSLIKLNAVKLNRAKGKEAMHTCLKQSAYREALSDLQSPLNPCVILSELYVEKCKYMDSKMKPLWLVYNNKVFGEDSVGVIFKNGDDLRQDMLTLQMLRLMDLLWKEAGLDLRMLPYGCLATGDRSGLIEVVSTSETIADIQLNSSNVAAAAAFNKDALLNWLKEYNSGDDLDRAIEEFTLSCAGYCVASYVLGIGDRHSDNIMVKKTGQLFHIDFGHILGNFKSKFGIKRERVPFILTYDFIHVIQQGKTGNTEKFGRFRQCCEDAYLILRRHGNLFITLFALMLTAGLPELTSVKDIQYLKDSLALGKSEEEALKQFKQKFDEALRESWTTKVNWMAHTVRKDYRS
T5 sequence (P48736 whole entry): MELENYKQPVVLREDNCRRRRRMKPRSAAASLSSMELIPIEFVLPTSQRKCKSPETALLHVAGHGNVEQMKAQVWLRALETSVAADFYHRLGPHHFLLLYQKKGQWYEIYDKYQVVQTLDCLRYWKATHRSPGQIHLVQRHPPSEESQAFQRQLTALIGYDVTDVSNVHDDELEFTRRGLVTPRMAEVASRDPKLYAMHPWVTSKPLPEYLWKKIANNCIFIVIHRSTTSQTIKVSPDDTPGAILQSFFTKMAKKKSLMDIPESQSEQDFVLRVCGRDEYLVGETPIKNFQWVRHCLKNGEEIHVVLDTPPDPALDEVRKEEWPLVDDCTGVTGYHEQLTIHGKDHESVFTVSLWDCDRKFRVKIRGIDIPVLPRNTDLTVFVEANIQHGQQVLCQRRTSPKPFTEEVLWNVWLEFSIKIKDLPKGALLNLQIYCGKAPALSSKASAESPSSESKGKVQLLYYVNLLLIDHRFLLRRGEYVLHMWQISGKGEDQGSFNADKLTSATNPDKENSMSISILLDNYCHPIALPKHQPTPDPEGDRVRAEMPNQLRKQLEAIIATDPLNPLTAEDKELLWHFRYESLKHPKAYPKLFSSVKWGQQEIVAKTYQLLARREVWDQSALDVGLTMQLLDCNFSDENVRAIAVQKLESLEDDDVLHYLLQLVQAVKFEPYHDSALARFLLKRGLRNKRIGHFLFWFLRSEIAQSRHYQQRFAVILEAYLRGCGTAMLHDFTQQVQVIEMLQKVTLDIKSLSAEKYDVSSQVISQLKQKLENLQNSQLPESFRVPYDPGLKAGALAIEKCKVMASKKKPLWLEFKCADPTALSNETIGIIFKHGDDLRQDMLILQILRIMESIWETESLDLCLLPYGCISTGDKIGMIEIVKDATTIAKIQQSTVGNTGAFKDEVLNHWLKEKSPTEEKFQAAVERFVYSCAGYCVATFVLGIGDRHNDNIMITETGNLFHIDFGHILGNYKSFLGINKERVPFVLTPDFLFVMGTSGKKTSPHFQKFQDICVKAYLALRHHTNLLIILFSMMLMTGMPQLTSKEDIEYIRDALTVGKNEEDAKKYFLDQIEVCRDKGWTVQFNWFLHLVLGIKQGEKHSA
T3 sequence (P42336 whole entry): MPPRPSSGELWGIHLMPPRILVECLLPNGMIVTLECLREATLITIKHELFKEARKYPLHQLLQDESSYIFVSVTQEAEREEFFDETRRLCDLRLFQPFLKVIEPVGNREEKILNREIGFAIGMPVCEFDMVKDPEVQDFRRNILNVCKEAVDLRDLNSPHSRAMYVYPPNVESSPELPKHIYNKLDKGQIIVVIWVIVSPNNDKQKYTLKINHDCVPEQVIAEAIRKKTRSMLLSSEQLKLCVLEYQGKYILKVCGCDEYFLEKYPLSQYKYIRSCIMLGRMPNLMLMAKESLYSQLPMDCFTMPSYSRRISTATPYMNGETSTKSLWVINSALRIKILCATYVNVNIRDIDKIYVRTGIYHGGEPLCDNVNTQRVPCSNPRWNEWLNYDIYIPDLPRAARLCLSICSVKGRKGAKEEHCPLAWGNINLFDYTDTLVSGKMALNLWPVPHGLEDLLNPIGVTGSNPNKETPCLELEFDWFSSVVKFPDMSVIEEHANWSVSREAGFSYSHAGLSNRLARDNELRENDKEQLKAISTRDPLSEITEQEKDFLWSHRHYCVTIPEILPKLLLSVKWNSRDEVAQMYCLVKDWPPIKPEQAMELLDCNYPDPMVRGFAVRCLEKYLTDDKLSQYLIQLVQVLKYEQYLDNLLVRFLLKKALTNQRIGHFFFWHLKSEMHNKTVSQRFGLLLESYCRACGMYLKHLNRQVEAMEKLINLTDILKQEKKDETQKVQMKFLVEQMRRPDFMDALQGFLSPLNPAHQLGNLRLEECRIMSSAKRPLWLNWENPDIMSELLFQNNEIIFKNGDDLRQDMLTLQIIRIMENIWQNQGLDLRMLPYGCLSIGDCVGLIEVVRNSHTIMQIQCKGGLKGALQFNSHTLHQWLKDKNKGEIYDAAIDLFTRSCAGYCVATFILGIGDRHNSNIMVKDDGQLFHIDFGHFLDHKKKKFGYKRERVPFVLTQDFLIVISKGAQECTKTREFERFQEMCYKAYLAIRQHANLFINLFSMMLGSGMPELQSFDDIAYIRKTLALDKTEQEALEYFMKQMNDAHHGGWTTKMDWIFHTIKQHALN

For orientation: IC50 means the concentration that inhibits the measured activity by half. As a reminder, the Kd is the concentration at which binding is half-saturated. As to `CC(Nc1cc(F)c(F)c(F)c1)c1cc(C(=O)NCCN(C)C)cc2ncc(N3CCOCC3)nc12` (single isomer, unassigned) [Compound 309a], the IC50 in experiment [1] stood at 9 nM; in experiment [3] it was 8 nM. Moreover, the Kd in experiment [2] is 59 nM; in experiment [4] it was 0.1 nM; in experiment [5], 1.1 µM; in experiment [6] it was 20 µM; in experiment [7] it was 1.74 µM.

`CC(Nc1cc(F)c(F)c(F)c1)c1cc(C(=O)NCCN(C)C)cc2ncc(N3CCOCC3)nc12` (single isomer, unassigned) [Compound 309b]: the IC50 is 363 nM in experiment [1] and 282 nM in experiment [3]. The Kd was 2340 nM in experiment [2]; 18 nM in experiment [4]; 4.9 µM in experiment [5]; over 30.2 µM in experiment [6]; 5.62 µM in experiment [7].

With `CC(C)NCCNC(=O)c1cc(C(C)Nc2ccc(Cl)c(F)c2)c2nc(N3CCOCC3)cnc2c1` (single isomer, unassigned) [Compound 312a], the half-maximal inhibitory concentration (IC50) in experiment [1] (Homo sapiens, PC-3, 1 h) is over 513 nM; in experiment [3] (Homo sapiens, PC-3, 1 h), over 513 nM. For the same molecule, the Kd in experiment [2] was 10000 nM; in experiment [4], 1150 nM; in experiment [5] it was 15.5 µM; in experiment [6], over 10 µM; in experiment [7], over 30.2 µM.

`CC(C)NCCNC(=O)c1cc(C(C)Nc2ccc(Cl)c(F)c2)c2nc(N3CCOCC3)cnc2c1` (single isomer, unassigned) [Compound 312b]: the IC50 in experiment [1] and in experiment [3] was over 513 nM each time. In addition, the Kd in experiment [2] was 1860 nM; in experiment [4] it was 26 nM; in experiment [5], 5.13 µM; in experiment [6], 20 µM; in experiment [7], 28.2 µM.

As to `CC(Oc1ccc(Cl)c(F)c1)c1cc(C(=O)N(C)CCN(C)C)cc2ncc(N3CCOCC3)nc12` (single isomer, unassigned) [Compound 313a], the IC50 in experiment [1] (Homo sapiens, PC-3, 1 h) stood at 257 nM; in experiment [3], 166 nM. In addition, the Kd is 851 nM in experiment [2]; 3 nM in experiment [4]; 5.01 µM in experiment [5]; over 30.2 µM in experiment [6]; 26.3 µM in experiment [7].

For the molecule `CC(Oc1ccc(Cl)c(F)c1)c1cc(C(=O)N(C)CCN(C)C)cc2ncc(N3CCOCC3)nc12` (single isomer, unassigned) [Compound 313b], the IC50 in experiment [1] and in experiment [3] was over 513 nM each time. The Kd was 5490 nM in experiment [2]; 302 nM in experiment [4]; 14.5 µM in experiment [5]; over 30.2 µM in experiment [6]; over 30.2 µM in experiment [7].

On to `CC(C)NCCNC(=O)c1cc(C(C)Oc2cccc(F)c2)c2nc(N3CCOCC3)cnc2c1` (single isomer, unassigned) [Compound 314a], for which the IC50 is about 407 nM in experiment [1] and over 513 nM in experiment [3]. Besides, the Kd in experiment [2] was 6030 nM; in experiment [4] it was 417 nM; in experiment [5], 17.4 µM; in experiment [6], 19.1 µM; in experiment [7], 30.2 µM.

On to `CNCCN(C)C(=O)c1cc(C(C)Nc2cc(F)c(F)c(F)c2)c2nc(N3CCOCC3)cnc2c1` (single isomer, unassigned) [Compound 335a], for which the IC50 in experiment [1] was found to be 5 nM; in experiment [3], 2 nM. Further, the Kd in experiment [2] stood at 33 nM; in experiment [4] it was 0.2 nM; in experiment [5] it was 0.466 µM; in experiment [6], 18.6 µM; in experiment [7], 1.22 µM.

For `CC(Oc1cccc(F)c1)c1cc(C(=O)N(C)C)cc2ncc(N3CCOCC3)nc12` (single isomer, unassigned) [Compound 339a], the IC50 in experiment [1] was over 513 nM; in experiment [3], 407 nM. For the same molecule, the Kd in experiment [2] is 2090 nM; in experiment [4], 112 nM; in experiment [5], 4.57 µM; in experiment [6], over 30.2 µM; in experiment [7] it was 10.7 µM.
